Test [1] in a line: Antiproliferative activity against human MCF7/AZ cells assessed as cell viability at 5 uM after 48 hrs by MTT assay relative to control. In kind it is functional. The note with it: read-out: Activity.
Test [2] relates to Jurkat. Put plainly: Antiproliferative activity against human Jurkat cells assessed as cell viability at 5 uM after 48 hrs by MTT assay. To be noted: read-out: Activity. Format: functional. A general note: Tetrazolium dyes change colour on reduction, which living cells bring about.
The test system of test [3] is HeLa. Kind of test: Antiproliferative activity against HeLa cells assessed as cell viability at 5 uM after 48 hrs by MTT assay relative to control. In kind it is functional. The note with it: Homo sapiens, read-out: Activity.
The test system of test [4] is Jurkat. Put plainly: Induction of apoptosis in Jurkat cells assessed as cell viability at 5 uM after 48 hrs by flow cytometry Annexin-V/propidium iodide assay. In kind it is functional. To be noted: Homo sapiens, read-out: Activity. For orientation: Flow cytometry measures light scatter and fluorescence of single cells or particles in a stream.
Test [5] deals with HeLa. Put plainly: Growth inhibition of HeLa cells after 48 hrs by MTT assay. Format: functional. To be noted: Homo sapiens.
The subject of test [6] is Jurkat. Kind of test: Increase in caspase 3 activation in Jurkat cells at 5 uM. Format: functional, Homo sapiens.
The subject of another test is Lymphocyte. Kind of test: Induction of apoptosis in human whole blood lymphocytes after 24 hrs by flow cytometric Annexin-V/propidium iodide assay. Format: functional, cell-based.
The test system of test [7] is Jurkat. Kind of test: Induction of apoptosis in Jurkat cells after 24 hrs by flow cytometric Annexin-V/propidium iodide assay. In kind it is functional, cell-based. The note with it: Homo sapiens.
The subject of test [8] is Jurkat. Kind of test: Effect on apoptosis in Jurkat cells assessed as cleavage of PARP at 5 uM. To be noted: Homo sapiens. Format: functional, cell-based.

From ChEMBL document CHEMBL1148830, “Discovery and investigation of antiproliferative and apoptosis-inducing properties of new heterocyclic podophyllotoxin analogues accessible by a one-step multicomponent synthesis” (2007) come the findings set out here.

The term GI50 denotes the concentration giving 50% growth inhibition.

Activity calls are given as the source filed them. The calls are words filed in the database; no cut-off is given here.

For `COc1cc(C2C3=C(COC3=O)Nc3c2c(-c2ccc(Br)cc2)nn3-c2ccccc2)cc(OC)c1OC` (stereo not given), the viability at 5 µM is 90% in [1], 99% with Jurkat [2], 73% in the test on HeLa [3] and 2% in the test on Jurkat [4].

With `Cc1n[nH]c2c1C(c1ccc(Cl)c(Cl)c1)C1=C(COC1=O)N2` (stereo not given), the viability at 5 µM was 56% in [1], 71% with Jurkat [2], 88% in the test with HeLa [3] and 33% in the test with Jurkat [4].

With `COc1cc2c(c(OC)c1)C(c1cc(OC)c(OC)c(OC)c1)C1=C(COC1=O)N2` (stereo not given), the viability at 5 µM in [1] is 43%; in the test with Jurkat [2] it was 55%; in the test with HeLa [3] it was 55%; in the test with Jurkat [4], 55%.

Turning to `COc1cc(C2C3=C(COC3=O)Nc3[nH]nc(C)c32)cc(Br)c1OC(C)=O` (stereo not given), in the test with HeLa [5], it took 4 µM to inhibit growth by half (GI50). Moreover, the viability at 5 µM is 46% in [1], 36% with Jurkat [2], 47% in the test with HeLa [3] and 58% in the test on Jurkat [4]. Also, the Fold change in the test on Jurkat [6] is 3. Further, in the test with Lymphocyte, the outcome was inactive.

As to `Cc1n[nH]c2c1C(c1cc(Br)c(O)c(Br)c1)C1=C(COC1=O)N2` (stereo not given), in the test on HeLa [5], the GI50 stood at 8 µM. For the same molecule, the viability at 5 µM in [1] was found to be 60%; in the test with Jurkat [2], 58%; in the test on HeLa [3] it was 58%; in the test with Jurkat [4], 53%. Also, in the test on Jurkat [6], the Fold change is recorded as 3. For the same molecule, the outcome in the test on Lymphocyte was inactive.

Regarding `Cc1n[nH]c2c1C(c1c(C)nn(-c3ccccc3)c1Cl)C1=C(COC1=O)N2` (stereo not given), the viability at 5 µM in [1] is 100%; in the test with Jurkat [2] it was 94%; in the test on HeLa [3], 58%; in the test with Jurkat [4] it was 6%.

For `Cc1n[nH]c2c1C(c1ccc(Br)cc1)C1=C(COC1=O)N2` (stereo not given), the viability at 5 µM in [1] amounted to 92%; in the test on Jurkat [2], 90%; with HeLa [3] it was 62%; with Jurkat [4] it was 10%.

For `COc1ccc(C2C3=C(COC3=O)Nc3[nH]nc(C)c32)cc1OC` (stereo not given), the viability at 5 µM in [1] was 95%; in the test on Jurkat [2] it was 88%; in the test with HeLa [3] it was 73%; in the test with Jurkat [4] it was 5%.

On to `Cc1n[nH]c2c1C(c1cccc(Cl)c1)C1=C(COC1=O)N2` (stereo not given), for which, in the test on HeLa [5], the GI50 was 10 µM. Also, the viability at 5 µM in [1] amounted to 54%; with Jurkat [2], 76%; with HeLa [3], 43%; with Jurkat [4], 28%. This molecule gave a Fold change in the test with Jurkat [6] of 3.

In the test on HeLa [5], `COc1cc(C2C3=C(COC3=O)Nc3[nH]nc(C)c32)cc(Br)c1OC` (stereo not given) showed a GI50 of 0.75 µM. Moreover, the viability at 5 µM in test [1] came to 47%; with Jurkat [2] it was 29%; in the test on HeLa [3], 16%; in the test on Jurkat [4], 56%. This molecule showed a Fold change in the test on Jurkat [6] of 3. Also, in the test with Lymphocyte, the result was inactive.

With `Cc1n[nH]c2c1C(c1ccsc1)C1=C(COC1=O)N2` (stereo not given), the viability at 5 µM in test [1] was 100%; in the test with Jurkat [2] it was 82%; with HeLa [3], 98%; in the test on Jurkat [4] it was 6%.

The molecule `Cc1n[nH]c2c1C(c1ccc(N(C)C)c(Br)c1)C1=C(COC1=O)N2` (stereo not given) registered a GI50 in the test with HeLa [5] of 6 µM. In addition, the viability at 5 µM in test [1] was determined as 59%; in the test with Jurkat [2], 34%; with HeLa [3], 55%; with Jurkat [4], 41%. This molecule also yielded a Fold change with Jurkat [6] of 3. In the test with Lymphocyte, the outcome was inactive.

`Cc1n[nH]c2c1C(c1cccc(Br)c1)C1=C(COC1=O)N2` (stereo not given) had a GI50 in the test on HeLa [5] of 5 µM. The viability at 5 µM in test [1] was 63%; with Jurkat [2], 68%; in the test on HeLa [3], 51%; with Jurkat [4], 58%. This molecule also yielded a Fold change with Jurkat [6] of 3. Further, the result with Lymphocyte was inactive. Also, the outcome in the test on Jurkat [7] was Active.

With `C=C(C)[C@@H]1CC=C(C2C3=C(COC3=O)Nc3[nH]nc(C)c32)CC1` (stereo not given in full), the viability at 5 µM in test [1] stood at 91%; in the test on Jurkat [2], 89%; in the test with HeLa [3] it was 95%; in the test with Jurkat [4], 14%.

Turning to `COc1cc(C2C3=C(COC3=O)Nc3c2c(C)nn3C)cc(OC)c1OC` (stereo not given), the viability at 5 µM in [1] was 98%; with Jurkat [2], 79%; in the test with HeLa [3], 55%; with Jurkat [4], 5%.

As to `Cc1n[nH]c2c1C(c1ccccc1)C1=C(COC1=O)N2` (stereo not given), the viability at 5 µM in [1] stood at 84%; in the test on Jurkat [2] it was 87%; in the test on HeLa [3], 74%; in the test on Jurkat [4] it was 10%.

Regarding `COc1cc(C2C3=C(COC3=O)Nc3c2c(C)nn3-c2ccc(C)cc2)cc(OC)c1OC` (stereo not given), the viability at 5 µM in test [1] was determined as 71%; in the test with Jurkat [2], 77%; in the test on HeLa [3] it was 77%; with Jurkat [4], 23%.

`COc1cc(C2C3=C(COC3=O)Nc3[nH]nc(C)c32)cc([N+](=O)[O-])c1O` (stereo not given): the viability at 5 µM in [1] came to 89%; in the test with Jurkat [2] it was 90%; in the test on HeLa [3], 78%; in the test on Jurkat [4], 5%.

In the case of `COc1cc(C2C3=C(COC3=O)Nc3[nH]nc(-c4ccc(Br)cc4)c32)cc(OC)c1OC` (stereo not given), the viability at 5 µM worked out at 98% in [1], 78% in the test with Jurkat [2], 67% with HeLa [3] and 5% in the test with Jurkat [4].

Regarding `COc1cc(C2C3=C(COC3=O)Nc3cc4c(cc32)OCO4)cc(OC)c1OC` (stereo not given), in the test with HeLa [5], the GI50 is 6 µM. Also, the viability at 5 µM in test [1] came out at 52%; in the test on Jurkat [2] it was 54%; in the test with HeLa [3] it was 54%; in the test with Jurkat [4], 55%.

Molecule `CCOc1c(Br)cc(C2C3=C(COC3=O)Nc3[nH]nc(C)c32)cc1OC` (stereo not given) had a GI50 in the test on HeLa [5] of 5 µM. Also, the viability at 5 µM in test [1] stood at 49%; in the test on Jurkat [2] it was 28%; in the test with HeLa [3], 52%; in the test with Jurkat [4] it was 49%. The Fold change with Jurkat [6] was determined as 3. Moreover, in the test on Lymphocyte, the outcome was inactive.

Take `Cc1n[nH]c2c1C(c1cccnc1)C1=C(COC1=O)N2` (stereo not given): the viability at 5 µM in test [1] amounted to 96%; in the test with Jurkat [2] it was 88%; with HeLa [3], 69%; in the test on Jurkat [4] it was 11%.

On to `COc1ccc(C2C3=C(COC3=O)Nc3[nH]nc(C)c32)cc1` (stereo not given), for which the viability at 5 µM was 82% in [1], 94% with Jurkat [2], 73% with HeLa [3] and 11% with Jurkat [4].

For `Cc1n[nH]c2c1C(c1ccccc1Br)C1=C(COC1=O)N2` (stereo not given), the viability at 5 µM came out at 100% in test [1], 90% in the test with Jurkat [2], 57% with HeLa [3] and 8% with Jurkat [4].

As to `Cc1n[nH]c2c1C(c1c(C)nc3sccn13)C1=C(COC1=O)N2` (stereo not given), the viability at 5 µM in test [1] was found to be 100%; with Jurkat [2] it was 85%; in the test with HeLa [3], 84%; in the test on Jurkat [4], 7%. Moreover, the result with Jurkat [8] was inactive.

Regarding `CSc1ccc(C2C3=C(COC3=O)Nc3[nH]nc(C)c32)cc1` (stereo not given), the viability at 5 µM in [1] was 95%; in the test with Jurkat [2], 87%; with HeLa [3] it was 45%; in the test with Jurkat [4] it was 14%.

With `COc1cc(C2C3=C(COC3=O)Nc3c2c(C)nn3C(C)C)cc(OC)c1OC` (stereo not given), the viability at 5 µM amounted to 99% in test [1], 77% with Jurkat [2], 83% in the test with HeLa [3] and 4% in the test on Jurkat [4].

As for `Cc1n[nH]c2c1C(c1cccc(F)c1)C1=C(COC1=O)N2` (stereo not given), the viability at 5 µM turned out to be 76% in test [1], 84% with Jurkat [2], 99% in the test with HeLa [3] and 28% in the test with Jurkat [4].

On to `Cc1n[nH]c2c1C(c1ccccc1[N+](=O)[O-])C1=C(COC1=O)N2` (stereo not given), for which the viability at 5 µM in test [1] is 99%; in the test with Jurkat [2] it was 64%; with HeLa [3] it was 71%; in the test with Jurkat [4], 6%.

On to `COc1cc2c(cc1OC)C(c1cc(OC)c(OC)c(OC)c1)C1=C(O)OCC1=N2` (stereo not given), for which, in the test on HeLa [5], the GI50 was 6 µM. Further, the viability at 5 µM in test [1] is 58%; in the test with Jurkat [2] it was 35%; in the test with HeLa [3], 53%; in the test with Jurkat [4] it was 49%.

In the case of `Cc1nc2ccccc2nc1C1C2=C(COC2=O)Nc2[nH]nc(C)c21` (stereo not given), the viability at 5 µM in test [1] was determined as 100%; in the test on Jurkat [2], 97%; in the test on HeLa [3] it was 72%; in the test with Jurkat [4], 11%.

Regarding `Cc1n[nH]c2c1C(C)C1=C(COC1=O)N2` (stereo not given), the viability at 5 µM in [1] was 97%; in the test with Jurkat [2] it was 78%; in the test with HeLa [3], 70%; in the test with Jurkat [4], 5%.

In the case of `Cc1n[nH]c2c1C(c1ccncc1)C1=C(COC1=O)N2` (stereo not given), the viability at 5 µM is 100% in [1], 92% in the test on Jurkat [2], 94% in the test with HeLa [3] and 4% with Jurkat [4].

On to `Cc1n[nH]c2c1C(c1cccs1)C1=C(COC1=O)N2` (stereo not given), for which the viability at 5 µM in test [1] was 98%; with Jurkat [2] it was 74%; in the test with HeLa [3], 82%; in the test with Jurkat [4] it was 18%.

Take `COc1cc2c(c(OC)c1OC)-c1ccc(OC)c(=O)cc1[C@@H](NC(C)=O)CC2`: in the test on Jurkat [6] (Homo sapiens), the outcome was Active.

With `Cc1n[nH]c2c1C(c1ccc(OC(F)(F)F)cc1)C1=C(COC1=O)N2` (stereo not given), the viability at 5 µM in test [1] was found to be 84%; with Jurkat [2] it was 97%; with HeLa [3] it was 97%; in the test on Jurkat [4], 9%.
